Columns and labels:
[1] = system: HCT-116 cells (colon); experiment: MTT cell viability assay, HCT-116; assay type: cell-based; conditions: Homo sapiens, HCT-116; 48 h, MTT, mean ± SD; read-out: IC50 HCT-116 (colon)
Procedure: Cell lines were purchased from the American Type Culture Collection (ATCC). MCF-7, HTB-54, BEAS-2B and 184B5 cell lines were grown in RPMI 1640 medium (Gibco) supplemented with 10% fetal bovine serum (FBS; Gibco), 100 units/mL penicillin, and […] streptomycin (Gibco). HT-29 and HCT-116 cell lines was cultured in McCoy’s 5A (Gibco), 10% FBS, 100 units/mL penicillin, and 100 μg/mL streptomycin. Cells were maintained at 37 °C and 5% CO2. Culture medium was replaced every three days.
(§1) A cell viability assay of each compound was carried out using an MTT assay. Each selenourea was dissolved in dimethyl sulfoxide (DMSO) at a concentration of 0.01 M. Serial dilutions were prepared with non-supplemented culture medium. Cytotoxic activity of each selenourea was determined at two different concentrations (10 and 50 µM) in MCF-7, HTB-54, and HT-29 cells. In addition, selected compounds were tested at seven different concentrations (0.1, 1, 5, 10, 25, 50, 100 µM) on MCF-7, HT-29, HCT-116, HTB-54, 184B5, and BEAS-2B cells. The number of passages before defrosting the cells was 3, and they were kept under culture up to a maximum of 15.
(§2) Briefly, 1 × 10^4 cells/well were grown in 96-well plates for 24 h. Then, these cells were incubated with either DMSO (negative control) at 5 µM or a different concentration of each tested selenourea for 48 h. A volume of 20 µL of MTT was added 150 min before the termination point to measure cellular viability. After this time, culture medium was removed. The resultant formazan crystals were dissolved in 50 µL of DMSO, and absorbance was measured at 570 nm. Results are expressed as IC50, the half maximal inhibitory concentration. This value was calculated using GraphPad Prism 7 software by nonlinear curve fitting. Furthermore, the selectivity index (SI) was calculated as the ratio of the IC50 values determined for the non-malignant and the tumoral cells (IC50 (184B5)/IC50 (MCF-7) or (IC50 (BEAS-2B)/IC50 (HTB-54). Data were obtained from at least three independent experiments performed in triplicates.

[2] = system: MCF-7, HTB-54, HT-29 and HCT-116 cancer cell lines; experiment: MTT assay, panel of four cancer cell lines; assay type: cell-based; conditions: MCF-7, HTB-54, HT-29, HCT-116, read-out: IC50 against the four cancer cell lines tested (all the cell lines)
Procedure: as §1, §2
Those derivatives that reduced the growth of the cell lines below 50% at 10 µM in at least one cell line were selected for being evaluated at five concentrations between […] and 100 µM. Ten compounds (1d, 1e, 2a, 2d, 3a, 6a, 6b, 6c, 6d, and 6e) passed this threshold and four of them (1e, 6c, 6d and 6e) in all three cancer cell lines. The data are expressed as IC50 (mean ± SD) in a panel of four cancer cell lines (MCF-7, HTB-54, HT-29, and HCT-116), and are shown in Table 1. Cisplatin was used as a standard drug. […] Additionally, reported IC50 values of a well-known antitumor selenocompound, i.e., sodium selenite (Na2SeO3), were used as reference for comparision with the selected selenoureas.

[3] = system: HTB-54 cells (lung adenocarcinoma); experiment: MTT cell viability assay, HTB-54; assay type: cell-based, human
In short: (§3)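 Cells at 1 × 10^4/well grown 24 h, then treated 48 h with selenourea at 10 and 50 µM (selected compounds 0.1–100 µM), DMSO as negative control. MTT added 150 min before end, formazan read at 570 nm; IC50 by nonlinear fit, ≥3 independent experiments in triplicate.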

[4] = system: HT-29 cells (colon carcinoma); experiment: MTT cell viability assay, HT-29; assay type: cell-based; conditions: Homo sapiens, 48 h, MTT
In short: as §3

[5] = system: SF-593 (CNS cancer); experiment: cells; assay type: cell-based
Text: (§4) The dose–response was also studied in the same 60 cancer cell lines, with outstanding results. […] Table 2 summarizes the GI50, TGI, and LC50 values of representative cell lines. Full data mean GI50 graphs are provided in the Supplementary Materials.

[6] = system: HCT-116 (colon cancer); experiment: cells; assay type: cell-based
Text: as §4

[7] = system: M14 (melanoma); experiment: cells; assay type: cell-based
Text: as §4

[8] = system: OVACAR-3 (ovarian cancer); experiment: cells; assay type: cell-based
Text: as §4

[9] = system: BT-549 (breast cancer); experiment: cells; assay type: cell-based
Text: as §4

COc1ccc(NC(=[Se])NC23CC4CC(CC(C4)C2)C3)cc1 [Compound 6c, N´-adamantyl-N-(4-methoxyphenyl)selenourea]
IC50 [1]: 3.6 ± 0.74 µM | IC50 [2]: < 10 µM | IC50 ([3]; Homo sapiens, HTB-54, 48 h, MTT, mean ± SD, read-out: IC50 HTB-54 (lung)): 5.09 ± 0.28 µM | viability at 10 µM ([3]; Homo sapiens, HTB-54, 10 µM, 48 h, MTT, read-out: cell viability, percentage of live cells): 33.1% | viability at 50 µM ([3]; Homo sapiens, HTB-54, 50 µM, 48 h, MTT, read-out: cell viability, percentage of live cells): 30.9% | SI (selectivity index) lung ([3]; IC50 (BEAS-2B)/IC50 (HTB-54)): 0.93 | IC50 ([4]; HT-29, mean ± SD, read-out: IC50 HT-29 (colon)): 5.6 ± 1.24 µM | viability at 10 µM ([4]; HT-29, 10 µM, read-out: cell viability, percentage of live cells): 34.6% | viability at 50 µM ([4]; HT-29, 50 µM, read-out: cell viability, percentage of live cells): 25.7% | GI50 ([5]; SF-593, NCI-60): 1.91 µM | TGI ([5]; SF-593, NCI-60): 4.17 µM | CC50 ([5]; read-out: LC50): 9.33 µM | TGI ([6]; HCT-116, NCI-60): 2.75 µM | CC50 ([6]; Homo sapiens, HCT-116, read-out: LC50): 6.03 µM | GI50 ([6]; Homo sapiens, HCT-116, NCI-60): 1.29 µM | CC50 ([7]; Homo sapiens, M14, read-out: LC50): 7.94 µM | GI50 ([7]; Homo sapiens, M14, NCI-60): 1.38 µM | TGI ([7]; M14, NCI-60): 3.31 µM | CC50 ([8]; OVACAR3, read-out: LC50): 7.41 µM | GI50 ([8]; OVACAR3, OVACAR-3, NCI-60): 1.38 µM | TGI ([8]; OVACAR-3, NCI-60): 3.24 µM | TGI ([9]; BT-549, NCI-60): 2.29 µM | CC50 ([9]; Homo sapiens, BT-549, read-out: LC50): 5.62 µM | GI50 ([9]; Homo sapiens, BT-549, NCI-60): 0.87 µM
